Laboratory results reported in patent publication US20250066325A1, “DIRECTED DEGRON MOLECULES AND APPLICATIONS THEREOF” (The Brigham and Women's Hospital, Inc., priority 2021, published 2025).
“Also recorded” adds a separate entry of the source.

Assays:
Assay type in all cases: cell-based
ZFP91 = molecular target: T1, ZFP91 (Homo sapiens, UniProt Q96JP5+Q96SW2); assay: Immunoblot of endogenous ZF protein ZFP91; conditions: for degradation potency for ZFP91 compared with pomalidomide (immunoblot): MM1.S cells; for off-target degradation of endogenous ZFP91 (immunoblot): dose-dependent
T1 construct: Immunoblots for endogenous ZF proteins ZFP91 and IKZF3 in MM1.S cells; endogenous in cells; host or cells: JURKAT, MM1.S, SU-DHL-1, H2228
Procedure: (§1) Western blot analysis. Lysates of cells treated with different compounds were collected with ice-cold M-PER™ Mammalian Protein Extraction Reagent (ThermoFisher Scientific, 78501) with freshly added phosphatase (Sigma-Aldrich, 04906837001) and protease (Sigma-Aldrich, 04693124001) inhibitors following the manufacturer's instructions. Next, 20-50 μg of proteins were fractionated with NuPAGE™ 4-12% Bis-Tris gels (ThermoFisher Scientific, NP0335BOX) then transferred onto nitrocellulose membranes using iBot™ Transfer Stacks (ThermoFisher Scientific, IB23002) following the manufacturer's instructions. Membranes were then stained with primary antibodies in 1:1000 dilutions and secondary fluorescent antibodies in 1:3000 dilutions using iBind™ Flex Fluorescent Detection Solution Kit (ThermoFisher Scientific, SLF2019) following the manufacturer's instructions.
(§2) Primary antibodies used in this study include ZFP91 (Bethyl Laboratories, A303-245A), IKZF3/Aiolos (D1C1E) (Cell Signaling, 15103S), CRBN (D8H3S) (Cell Signaling, 71810S), ALK(D5F3) XP (Cell Signaling, 3633S), phospho-ALK (Tyr1507) (D6F1V) (Cell Signaling, 14678S), β-actin (8H10D10) Mouse mAb (Cell Signaling, 3700S). Fluorescent secondary antibodies used in this study include IRDye 680RD goat anti-mouse IgG (LI-COR Biosciences, 926-68070) and IRDye 800CW goat anti-rabbit IgG (LI-COR Biosciences, 926-32211). Western blot detection was performed using an Odyssey CLx Imaging System (LI-COR Biosciences). Quantification of the relative area and density values of western blot bands were carried out using ImageJ v2.1.0 following the ImageJ User Guide for gel analysis (https://imagej.nih.gov/ij/docs/guide/). Quantified values were normalized by values for loading controls such as β-actin. For phospho NPM-ALK, quantified values were normalized by the values for total ALK.

IKZF3 = molecular target: T2, IKZF3 (Homo sapiens, UniProt Q96SW2+Q9UKT9); assay: Immunoblot of endogenous ZF protein IKZF3; conditions: for degradation potency for IKZF3 compared with pomalidomide (immunoblot): MM1.S cells; for off-target degradation of endogenous IKZF3 (immunoblot): JURKAT cells, dose-dependent
T2 construct: Immunoblots for endogenous ZF proteins ZFP91 and IKZF3 in MM1.S cells; endogenous in cells; host or cells: JURKAT, MM1.S
Procedure: as §1, §2

[1] = test system: ZF degrons fused to eGFP in U2OS cells; assay: Automated high-content imaging assay of ZF degron-tagged eGFP degradation (off-target profiling); conditions: U2OS ZF degron reporter cells, 24 hours, doses 4.3 nM to 20 μM
Description: Development and validation of an off-target profiling platform for PROTACs. To profile the ZF degradation propensity of pomalidomide and its analogs, an automated high-content imaging assay was first developed (FIG. 1A). For this platform, 23-amino acid ZF degrons of 12 ZF proteins were selected that are reportedly degraded by pomalidomide and two ZFs that are not.^2 These ZF degrons were inserted into a lentiviral degradation reporter vector (cilantro 2) to compare the fluorescence of ZF-tagged enhanced green fluorescent protein (eGFP) to untagged mCherry with high-content imaging (FIG. 1A). With this assay, wherein compounds are scanned against the 14 stable cell lines containing our tagged ZF-proteins, dose-dependent degradation of ZF degron-tagged eGFP by pomalidomide was reliably detected with a robust readout (Z-prime value of 0.8) (FIG. 5). […] Unlike mass spectrometry, this reporter-based method is not limited by cell-type-specific expression levels of analyte proteins nor by the accessibility to ZFs in the context of full-length proteins that are engaged in protein complexes. […]
The fluorescence intensity of eGFP was normalized to that of mCherry for every cell. […] The degradation score was then calculated by taking the sum of the GFP degradation fractions across all doses for each compound. […]

SU-DH-L1 cells = assay: Cell viability assay (CellTiter-Glo); conditions: for IC50: SU-DHL-1, SU-DH-L1 cells, 24 hours
Procedure: Cell Viability Assay. SU-DH-L1 cells were seeded in 30 μl of 8000 cells per well in 384-well plates pre-printed with 10 mM of the stock compounds in varying volumes using a Tecan D300e Digital Dispenser (Tecan). After 24 hours, cell viability was determined using a CellTiter-Glo Luminescent Cell Viability Assay (Promega, G7571) following the manufacturer's instructions. Dose-response curve fitting and IC50 quantification were determined with four parameter nonlinear regression analysis using GraphPad Prism v8.4.2.

MOLT4 and KELLY cells = assay: Global proteomic studies (TMT) of IMiDs in ZF protein-relevant cell lines; conditions: 1 μM
Procedure: Global proteomic studies. To validate the results from the imagining-based experiments, Applicant performed proteomics studies in two ZF protein-relevant cell lines (MOLT4 and KELLY).^26 Briefly, Applicant treated the ZF protein-relevant cells (MOLT4 and KELLY) with IMiDs or PROTACs at 1 μM concentrations, and the protein lysates were prepared from the cells were digested, and labeled using a TMT-based quantification kit. Labeled samples were subjected to LC/MS on an Orbitrap Eclipse Tribrid mass spectrometer. Applicant used the Proteome Discoverer software pipeline and identified the final hits by searching against the uniport database.

[2] = listed as Thalidomide analog with amino group on C5 position

T2 sequence (Q9UKT9 whole entry): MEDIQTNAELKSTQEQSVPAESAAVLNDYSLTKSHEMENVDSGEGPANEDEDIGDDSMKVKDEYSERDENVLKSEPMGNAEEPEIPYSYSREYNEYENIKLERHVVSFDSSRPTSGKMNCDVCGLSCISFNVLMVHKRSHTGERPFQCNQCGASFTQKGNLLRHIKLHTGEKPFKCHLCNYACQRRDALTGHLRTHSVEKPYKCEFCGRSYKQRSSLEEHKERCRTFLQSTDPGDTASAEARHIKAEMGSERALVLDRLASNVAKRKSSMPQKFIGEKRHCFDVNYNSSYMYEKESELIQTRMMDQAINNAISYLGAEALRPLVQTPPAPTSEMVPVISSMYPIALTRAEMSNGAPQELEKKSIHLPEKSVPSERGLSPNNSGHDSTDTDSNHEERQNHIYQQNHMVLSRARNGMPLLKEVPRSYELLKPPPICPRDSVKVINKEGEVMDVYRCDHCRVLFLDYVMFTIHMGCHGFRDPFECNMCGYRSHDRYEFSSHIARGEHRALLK
T2 sequence (Q96SW2 whole entry): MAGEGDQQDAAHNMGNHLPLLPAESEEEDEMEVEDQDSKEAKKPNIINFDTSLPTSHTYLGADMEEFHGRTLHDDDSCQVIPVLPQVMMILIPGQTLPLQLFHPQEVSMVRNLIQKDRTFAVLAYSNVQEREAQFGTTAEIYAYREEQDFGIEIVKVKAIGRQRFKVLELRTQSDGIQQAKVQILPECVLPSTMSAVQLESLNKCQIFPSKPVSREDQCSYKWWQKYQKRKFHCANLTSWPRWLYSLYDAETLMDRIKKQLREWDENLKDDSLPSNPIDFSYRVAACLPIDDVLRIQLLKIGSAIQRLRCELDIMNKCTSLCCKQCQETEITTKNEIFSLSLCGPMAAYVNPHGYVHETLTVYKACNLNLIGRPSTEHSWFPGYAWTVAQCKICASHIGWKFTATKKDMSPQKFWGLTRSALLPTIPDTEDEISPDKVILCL
T2 sequence (Q16531 2-1140 partner limits assumed): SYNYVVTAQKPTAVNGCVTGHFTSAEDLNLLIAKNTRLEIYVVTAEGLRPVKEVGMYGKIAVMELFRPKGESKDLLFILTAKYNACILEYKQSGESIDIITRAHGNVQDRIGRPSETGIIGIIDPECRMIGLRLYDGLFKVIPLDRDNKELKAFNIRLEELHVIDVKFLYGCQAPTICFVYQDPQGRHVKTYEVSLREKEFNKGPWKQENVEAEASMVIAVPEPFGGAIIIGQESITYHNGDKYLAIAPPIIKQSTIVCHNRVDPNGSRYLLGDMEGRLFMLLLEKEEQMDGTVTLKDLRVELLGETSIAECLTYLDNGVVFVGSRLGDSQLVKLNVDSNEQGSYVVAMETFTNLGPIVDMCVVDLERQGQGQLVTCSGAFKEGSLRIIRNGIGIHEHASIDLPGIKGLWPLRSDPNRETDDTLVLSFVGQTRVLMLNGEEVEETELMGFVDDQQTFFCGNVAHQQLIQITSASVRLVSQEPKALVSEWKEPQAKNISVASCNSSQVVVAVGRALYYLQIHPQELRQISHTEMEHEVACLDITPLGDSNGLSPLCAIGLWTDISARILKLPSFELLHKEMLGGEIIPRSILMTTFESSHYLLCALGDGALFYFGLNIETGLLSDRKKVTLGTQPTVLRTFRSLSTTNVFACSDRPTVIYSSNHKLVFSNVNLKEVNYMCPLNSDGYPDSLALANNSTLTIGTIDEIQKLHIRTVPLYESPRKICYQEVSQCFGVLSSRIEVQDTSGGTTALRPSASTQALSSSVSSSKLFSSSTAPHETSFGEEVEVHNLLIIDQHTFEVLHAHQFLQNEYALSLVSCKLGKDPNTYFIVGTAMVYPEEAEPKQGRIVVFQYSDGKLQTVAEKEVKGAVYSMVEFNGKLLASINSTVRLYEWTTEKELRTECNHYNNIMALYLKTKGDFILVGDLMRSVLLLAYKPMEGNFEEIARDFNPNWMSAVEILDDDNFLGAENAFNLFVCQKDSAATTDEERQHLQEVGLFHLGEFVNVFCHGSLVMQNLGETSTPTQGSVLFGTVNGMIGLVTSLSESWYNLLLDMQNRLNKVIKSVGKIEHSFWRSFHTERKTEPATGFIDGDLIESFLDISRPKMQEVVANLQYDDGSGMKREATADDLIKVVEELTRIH
T1 sequence (Q96JP5 2-570 limits assumed): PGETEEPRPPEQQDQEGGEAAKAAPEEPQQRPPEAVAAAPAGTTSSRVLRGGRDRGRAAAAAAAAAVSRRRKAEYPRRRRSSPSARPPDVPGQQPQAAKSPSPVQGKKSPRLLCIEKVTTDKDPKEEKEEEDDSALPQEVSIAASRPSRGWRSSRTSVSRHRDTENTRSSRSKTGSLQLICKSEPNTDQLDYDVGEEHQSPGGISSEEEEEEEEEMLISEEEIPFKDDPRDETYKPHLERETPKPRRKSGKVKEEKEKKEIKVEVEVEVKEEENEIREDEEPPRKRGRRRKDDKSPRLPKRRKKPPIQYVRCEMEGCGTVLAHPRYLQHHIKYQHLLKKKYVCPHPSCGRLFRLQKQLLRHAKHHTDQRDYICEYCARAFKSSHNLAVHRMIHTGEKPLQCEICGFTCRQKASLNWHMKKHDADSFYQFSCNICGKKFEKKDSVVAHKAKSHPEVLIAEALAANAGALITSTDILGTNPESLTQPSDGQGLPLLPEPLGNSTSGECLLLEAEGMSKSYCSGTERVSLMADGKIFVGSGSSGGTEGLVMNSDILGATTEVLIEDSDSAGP
T1 sequence (Q96SW2 whole entry): as the sequence (Q96SW2 whole entry) above
T1 sequence (Q16531 2-1140 partner limits assumed): as the sequence (Q16531 2-1140 partner limits assumed) above

Row | SMILES | off-target degradation of ZF degron-tagged eGFP [1] | off-target degradation of endogenous ZFP91 (immunoblot) (ZFP91; JURKAT cells) | off-target degradation of endogenous IKZF3 (immunoblot) (IKZF3) | IC50 (SU-DH-L1 cells; Homo sapiens, Example 1) | other results
1 | Nc1ccc2c(c1)C(=O)N(C1CCC(=O)NC1=O)C2=O (stereo not shown) [5-aminothalidomide] |  |  |  |  | degradation potency for ZFP91 compared with pomalidomide (immunoblot) (ZFP91): decrease in overall degradation potency; degradation potency for ZFP91 compared with pomalidomide (immunoblot) (ZFP91; [2]): decrease in the potency; degradation potency for IKZF3 compared with pomalidomide (immunoblot) (IKZF3): decrease in overall degradation potency; degradation potency for IKZF3 compared with pomalidomide (immunoblot) (IKZF3; [2]): decrease in the potency
2 | Cc1cc(Nc2ncc(Cl)c(Nc3ccccc3S(=O)(=O)C(C)C)n2)c(OC(C)C)cc1C1CCN(CC(=O)NCCNc2cccc3c2C(=O)N(C2CCC(=O)NC2=O)C3=O)CC1 (stereo not shown) [MS4078] | high level of off-target ZF degradation; also recorded: ZNF517, ZNF654, ZNF276, ZNF653, and PATZ1 | off-target degradation | off-target degradation | 195 nM | off-target degradation of endogenous ZFP91 (immunoblot) (ZFP91; SU-DHL-1 and H2228 cell lines): off-target degradation; EC50 (SU-DH-L1 cells; Homo sapiens, SU-DHL-1 cells, Example 3 numbering): 195 nM; fold lowering of potency relative to ceritinib (SU-DH-L1 cells; IC50 ratio, Example 1): 2.8 fold
3 | Nc1cccc2c1C(=O)N(C1CCC(=O)NC1=O)C2=O (stereo not shown) [Pomalidomide] | degraded all 12 ZF degrons |  |  |  | off-target profile in global proteomics (MOLT4 and KELLY cells): exhibited the commonly reported off-targets
4 | Cc1cc(Nc2ncc(Cl)c(Nc3ccccc3S(=O)(=O)C(C)C)n2)c(OC(C)C)cc1C1CCNCC1 [ceritinib] |  |  |  | 69.3 nM | 
5 | CC[C@H](C(=O)N1CCCC[C@H]1C(=O)O[C@H](CCc1ccc(OC)c(OC)c1)c1ccccc1OCC(=O)NCCCCCCOc1cccc2c1C(=O)N(C1CCC(=O)NC1=O)C2=O)c1cc(OC)c(OC)c(OC)c1 (stereo partly shown) [dTAG-13] |  | off-target degradation | off-target degradation |  | 
